From US5591740A, “Use of debromohymenialdisine for treating osteoarthritis” (OsteoArthritis Sciences, Incorporated, priority 1995, dated 1997)

What was measured:
[1] = test system: chondrocytes, interleukin-1 induced proteoglycan degradation; experiment: Chondrocyte cell culture matrix breakdown assay (IL-1 induced 35S proteoglycan release); format: cell-based, calf; details: for IC50: Bos taurus, chondrocyte matrix breakdown assay, 1 ng/ml rhIL-1α, 22-24 hours, read-out: IC50, inhibition of proteoglycan degradation; for dose response curve (FIG. 1): percent inhibition over a range of concentrations
Description: A cell culture assay was used to-measure the ability of the test compounds to slow the degradation of the extracellular matrix by a metalloproteinase. This assay measured the amount ^35 S released from chondrocytes grown in a media with ^35 S labeled sodium sulfate. The cell culture assay was carried out as follows:
Two or three 1 to 3 week old calf joints were obtained from an abattoir. The proximal end of the shank was about 4-5" long to facilitate immobilization in the holder. The joint was kept cool and transported on ice. The exterior of the intact joints was washed well with a suitable anti-microbial soap, rinsed clean with warm water, rinsed in betadine and then finally rinsed with 70% ethanol. Up to this point all steps were done in a manner to ensure that the joint was kept as clean as possible. All subsequent steps were performed in a sterile field (i.e., in a Edgeguard laminar flow tissue culture hood). The joint was immobilized and the synovial fluid was aspirated with a needle and syringe. The joint was then cut open to expose the articular cartilage using a #21 scalpel. Using locking hemostats, forceps and a #15 scalpel, the cartilage was excised in full thickness pieces. Care was taken not to cut too deep into the subchondral bone to prevent bleeding. The cartilage pieces were placed into a 50 mL centrifuge tube containing 25 mL of Delbecco's phosphate buffered saline (D-PBS) supplemented with 1% antibiotic solution (penicillin, streptomycin and fungizone; GIBCO/BRL). The slices from each joint were then placed into separate 50 mL centrifuge tubes. The D-PBS was decanted and replaced with 25 mL of fresh D-PBS supplemented with antibiotics and subsequently agitated gently.
The cartilage pieces were transferred to a fresh 50 mL centrifuge tube and rinsed once more with 25 mL of D-PBS minus antibiotics. An enzymatic digestion solution containing 1 mg/mL of hyaluronidase in serum-free 1:1 DMEM/Ham's F-12 (DMEM/F12) was prepared. This solution was filter sterilized with […] Milex--GV filter and kept on ice until ready to use. The cartilage pieces were digested with approximately 5 mL of hyaluronidase solution per joint for 2×15 minutes at 37° C. in the 50 mL centrifuge tube with gentle agitation at the 15 minute mark. This procedure removed residual hyaluronic acid from the surface of the chips. The enzymatic digestion solution was then aspirated and the cartilage pieces were rinsed with 25 mL of D-PBS.
A second enzymatic digestion solution containing 2.5 mg trypsin and 2 mg collagenase P per mL serum-free DMEM/F12 was prepared. This solution was also filter sterilized with a […] Millex--GV filter and kept on ice until ready to use. The cartilage pieces were digested with approximately 5 mL of trypsin: collagenase solution per joint for 2×15 minutes at 37° C. in the 50 mL centrifuge tube with gentle agitation at the 15 minute mark. This procedure removed the synovial fibroblasts and any adherent connective tissue from the surface of the chips. The enzymatic digestion solution was then carefully removed and saved and the cartilage pieces were rinsed with 25 mL of D-PBS.
A third enzymatic solution containing 2 mgs of collagenase P (BMB) per mL serum-free DMEM/F12 was prepared. This solution was filter sterilized with a […] Millex--GV filter and kept on ice until ready to use. The pre-digested cartilage pieces were finally digested with approximately 20 mL of enzymatic digestion solution per joint for 5-6 hours at 37° C. in a Bellco stirring digestion flask, at which point the cartilage was fully digested away.
The enzymes in the synovial fibroblast and chondrocyte digest were neutralized by addition of an equal volume of DMEM/F12 supplemented with 5% fetal bovine serum. Fibroblasts were plated in DMEM at a cellular density of 6.6×10^3 cells per cm^2. […]

[2] = test system: bovine cartilage explants, interleukin-1 stimulated proteoglycan degradation; experiment: Bovine articular cartilage explant assay (IL-1 induced 35S-GAG release); format: cell-based, bovine (1 to 3 week old calf); details: for IC50: Bos taurus, bovine cartilage explants, rhIL-1α 5 ng/mL, 3-4 days, read-out: IC50, inhibition of interleukin-1 stimulated proteoglycan degradation; for dose response curve (FIG. 2): percent inhibition over a range of concentrations
Text: A tissue culture assay was used to measure the ability of the compounds of the present invention to slow the degradation of the extracellular matrix by metalloproteinases. This assay measured the amount of ^35 S-glycosaminoglycan (^35 S-GAG) released from labeled bovine cartilage explants.
Knee joints from a 1 to 3 week old calf were obtained immediately after sacrifice from the Abattoir and then transported on ice. The intact joints were washed well with tap water and soaked in 50% (v/v) Povidine iodine solution, obtained from Burre National, Inc., Baltimore, Md. All subsequent steps were performed in a laminar flow tissue culture hood using standard sterile technique. The joint was immobilized in a shank holder and the joint capsule was cut open to expose the articular cartilage. Cartilage explant plugs, approximately 15 mg wet weight, were removed from the flat articulating surfaces in the lower-most region of the knee joint using a sterile steel cork-borer and collected in a 250 mL roller bottle containing about 100 mL fresh Delbecco's minimum essential medium (DMEM), obtained from Gibco BRC, Life Technologies, Gaithersburg, Md., containing 4.5 g/l (D)-glucose and (L)-glutamine, without sodium pyruvate. The fresh media also contained enough Hepes buffer and sodium bicarbonate such that the pH was about 7.4. The media was then further supplemented just before use with 100 units Penicillin, 100 μg Streptomycin, and 50 μg (L)-ascorbic acid per mL of medium.
Once collected, the explant plugs were washed four times with 50 mL fresh DMEM. The plugs were then placed in the incubator for a minimum of 1 hour to equilibrate, before proceeding to make disks from the articulating surface of each plug. A 1 mm thick disk was sliced from individual plugs from the end that was the articulating surface of the joint. The plug was held steady in the sterile template (4 mm diameter ×1.5 mm deep) using sterile forceps. A scalpel blade was used to carefully slice off the disk. Only the superficial articulating surface responded well in culture.
Individual disks obtained were transferred to a tissue culture flask containing about 100 mL fresh media. The flask containing the disks was placed in an incubator at 37° C. (with 5% CO2, 95% air) and allowed to equilibrate overnight and at least one additional day before labeling. When ready to label, the old media was replaced with 50 mL fresh media containing about 500 μCi ^35 S-Sodium Sulfate. The plugs were labeled in bulk for about 48 hours. […]
The TC plates were then placed in the incubator and cultured for 3-4 days (initial incubation with rhIL-1α alpha takes at least 3 days to stimulate endogenous metalloproteinases). A 50 μL aliquot of media from each TC plate was saved and counted. […]

[3] = test system: osteoarthritis in Hartley guinea pigs following surgical induction of joint instability; experiment: Slowing the development of osteoarthritis in the Hartley guinea pig model (surgically induced joint instability, Mankin scoring); format: in vivo, male Hartley guinea pigs; set-up: Structure (Mankin criteria), mean / Cells (Mankin criteria), mean / Safranin O (Mankin criteria), mean / mean Mankin score: scale not given here; details: for Cells (Mankin criteria), mean: untreated 1.6; for Safranin O (Mankin criteria), mean: untreated 2.3; for Structure (Mankin criteria), mean: untreated 4.6; for mean Mankin score: untreated 10.3, placebo 10.0
Description: Thirty five male Hartley guinea pigs 40 days old, were purchased from Charles River Laboratories. Each group consisted of 5 animals that were euthanized at 1, 2, 3, 4, 5, 6 and 8 months post-surgery. Ketamine 40 mg/kg, Xylazine 5 mg/kg and Fentanyl 0.1 mg/kg sc were used for anesthesia. Naloxone hydrochloride was given at 0.1 mg/kg following surgery. For radiography, animals were sedated with Xylazine 10 mg/kg sc and superficially anesthetized with Ketamine 20 mg/kg sc.
Surgery was performed under direct visualization using a dissecting microscope at 7.5 fold magnification. A medial longitudinal parapatellar incision was followed by division of the capsule and synovial layers. A partial medical menisectomy was followed by transection of the anterior cruciate ligament. Confirmation of the ligament transection was obtained by a positive anterior drawer sign. The capsule was continuously sutured with 5-0 VICRYL™ and the skin was closed with staples.
After the animals were sacrificed, joints were prepared for histological examination by standard techniques. Joints were fixed for 14 days in 10% formalin. Knees were then decalcified in 20% Formic acid in PBS, pH 7.2 for 24 hours. Sections cut at 5μ were stained with Safranin O, Fast Green and Hematoxylin. Radiographic evaluation was performed with antero-posterior and lateral views. A dental X-Ray unit and DF-50 film were used. Histopathological scoring was performed by two blinded, independent observers using the Mankin criteria (Mankin, H. J., "Biochemical and Metabolic Aspects of Osteoarthritis," Orthopedic Clinics of North America, 2:19-30 (1971). This evaluation system grades the structural defects, cellular changes, loss of proteoglycan as reflected by Safranin 0, and disruption of an antatomic landmark reflecting the transition to calcified cartilage. The Mankin scoring criteria are listed below:
Surgery was performed on twenty-four male Hartley guinea pigs during which the joint instability was induced according to the procedure described in Example 4.
The animals were divided into four groups of six. Beginning two weeks following surgery, each animal in the first two groups was given weekly intraarticular injections into the surgically treated joints of 0.3 mg (6 mg/ml) or 1.5 mg of Z-debromohymenialdisine (30 mg/ml) in a vehicle containing carboxymethylcellulose (2 mg/ml saline) and polysorbate 80 (0.5 mg/ml saline). Total volume of the injection was 50 μl. Group III animals were given weekly intraarticular injections of a placebo, while Group IV animals were left untreated. The treatments were continued for seven weeks.
At the termination of the system, the animals were euthanized and […] evaluation of the knees was performed as described in Example 5 using the Mankin criteria. The results of the histological evaluation at seven weeks post surgery are depicted in FIG. 4.

[4] = 0.3 or 1.5 mg/week intraarticular

SMILES | IC50 [1] [µM] | IC50 [2] [µM] | dose response curve (FIG. 2) [2] | Cells (Mankin criteria), mean ([3]; 0.3 mg weekly intraarticular) | Safranin O (Mankin criteria), mean ([3]; 0.3 mg weekly intraarticular) | Structure (Mankin criteria), mean ([3]; 0.3 mg weekly intraarticular) | mean Mankin score ([3]; 0.3 mg/week intraarticular) | Cells (Mankin criteria), mean ([3]; 1.5 mg weekly intraarticular) | Safranin O (Mankin criteria), mean ([3]; 1.5 mg weekly intraarticular) | Structure (Mankin criteria), mean ([3]; 1.5 mg weekly intraarticular) | mean Mankin score ([3]; 1.5 mg/week intraarticular) | disease progression, result in words [3, 4] | structural and biochemical changes in developing osteoarthritis (loss of Safranin O staining), result in words [3, 4] | joint degeneration and cartilage degradation, result in words ([3]; animal model, weekly intraarticular) | dose response curve (FIG. 1) [1]
NC1=NC(=O)/C(=C2\CCNC(=O)c3[nH]c(Br)cc32)N1 [Hymenialdisine (2), hymenialdisine] | > 50 |  |  |  |  |  |  |  |  |  |  |  |  |  | 
NC1=N/C(=C2/CCNC(=O)c3[nH]ccc32)C(=O)N1 [Z-debromohymenialdisine] | 0.8 | 2 | broad, shallow dose response curve | 1.2 | 1.5 | 3.5 | 6.7 | 1.5 | 1.1 | 1.6 | 5.5 | significant reduction in disease progression | able to diminish the structural and biochemical changes | effective in slowing joint degeneration and cartilage degradation | broad, shallow dose response curve
NC1=N/C(=C2\CCNC(=O)c3[nH]ccc32)C(=O)N1 [E-debromohymenialdisine] | 6 | 50 | broad, shallow dose response curve |  |  |  |  |  |  |  |  |  |  |  | broad, shallow dose response curve
O=C1NC(=O)/C(=C2/CCNC(=O)c3[nH]c(Br)cc32)N1 [Axinohydantoin (3), axinohydantoin] | > 50 |  |  |  |  |  |  |  |  |  |  |  |  |  | 
